Assay results published in ChEMBL document CHEMBL5518223, “Structure-Guided Elaboration of a Fragment-Like Hit into an Orally Efficacious Leukotriene A4 Hydrolase Inhibitor” (J Med Chem, 2024).
In brackets after ≈: the same amount, converted by molar mass.

Tests used:
in vivo = conditions: C57/BL6, mouse, blood, po, 10 mg/kg
Description: Drug concentration in C57/BL6 mouse blood at 10 mg/kg, po bid measured after 14 hrs

[1] = molecular target: T1, Leukotriene A-4 hydrolase (Homo sapiens, UniProt P09960); test: Inhibition of LTA4H (unknown origin) using Arg-AMC as substrate preincubated with compound for 15 mins followed by substrate addition and measured after every 10 mins for 30 mins by fluorescence based analysis
T1 sequence (P09960 whole entry): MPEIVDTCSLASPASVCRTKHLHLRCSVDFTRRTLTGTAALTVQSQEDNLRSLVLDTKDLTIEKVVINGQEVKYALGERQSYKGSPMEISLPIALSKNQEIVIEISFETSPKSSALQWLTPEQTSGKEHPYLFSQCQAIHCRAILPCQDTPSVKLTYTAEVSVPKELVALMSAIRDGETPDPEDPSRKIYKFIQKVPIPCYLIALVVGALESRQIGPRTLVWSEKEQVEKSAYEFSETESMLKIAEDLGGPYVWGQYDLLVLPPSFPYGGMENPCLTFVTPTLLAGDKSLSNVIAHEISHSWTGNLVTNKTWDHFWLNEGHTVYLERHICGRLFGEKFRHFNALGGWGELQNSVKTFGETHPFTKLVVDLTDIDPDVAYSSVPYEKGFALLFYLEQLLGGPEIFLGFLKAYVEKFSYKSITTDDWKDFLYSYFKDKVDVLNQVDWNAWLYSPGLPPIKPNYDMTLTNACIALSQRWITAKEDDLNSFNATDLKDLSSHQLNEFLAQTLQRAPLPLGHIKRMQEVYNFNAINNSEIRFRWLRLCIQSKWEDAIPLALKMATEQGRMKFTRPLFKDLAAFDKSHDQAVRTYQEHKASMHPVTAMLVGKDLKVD

physchem [2] = conditions: octanol/water, pH 7.4
in vitro = conditions: dog, MDCK
Description: Apparent permeability coefficient of the compound across apical to basolateral side in dog MDCKII-LE cells

physchem [3] = conditions: buffer, pH 6.8
Description: Solubility of the compound at pH 6.8 using amorphous form of sample

Mus musculus = species: Mus musculus; test: animal or person; conditions: C57/BL6, po, 14 h, read-out: INH
Description: Inhibition of calcium ionophore A23187-stimulated LTB4 release in C57/BL6 mouse model at 10 mg/kg, po bid measured after 14 hrs

[4] = molecular target: T2, Voltage-gated inwardly rectifying potassium channel KCNH2 (Homo sapiens, UniProt Q12809); test: Inhibition of hERG by microfluidic patch clamp assay; assay type: toxicity
T2 sequence (Q12809 whole entry): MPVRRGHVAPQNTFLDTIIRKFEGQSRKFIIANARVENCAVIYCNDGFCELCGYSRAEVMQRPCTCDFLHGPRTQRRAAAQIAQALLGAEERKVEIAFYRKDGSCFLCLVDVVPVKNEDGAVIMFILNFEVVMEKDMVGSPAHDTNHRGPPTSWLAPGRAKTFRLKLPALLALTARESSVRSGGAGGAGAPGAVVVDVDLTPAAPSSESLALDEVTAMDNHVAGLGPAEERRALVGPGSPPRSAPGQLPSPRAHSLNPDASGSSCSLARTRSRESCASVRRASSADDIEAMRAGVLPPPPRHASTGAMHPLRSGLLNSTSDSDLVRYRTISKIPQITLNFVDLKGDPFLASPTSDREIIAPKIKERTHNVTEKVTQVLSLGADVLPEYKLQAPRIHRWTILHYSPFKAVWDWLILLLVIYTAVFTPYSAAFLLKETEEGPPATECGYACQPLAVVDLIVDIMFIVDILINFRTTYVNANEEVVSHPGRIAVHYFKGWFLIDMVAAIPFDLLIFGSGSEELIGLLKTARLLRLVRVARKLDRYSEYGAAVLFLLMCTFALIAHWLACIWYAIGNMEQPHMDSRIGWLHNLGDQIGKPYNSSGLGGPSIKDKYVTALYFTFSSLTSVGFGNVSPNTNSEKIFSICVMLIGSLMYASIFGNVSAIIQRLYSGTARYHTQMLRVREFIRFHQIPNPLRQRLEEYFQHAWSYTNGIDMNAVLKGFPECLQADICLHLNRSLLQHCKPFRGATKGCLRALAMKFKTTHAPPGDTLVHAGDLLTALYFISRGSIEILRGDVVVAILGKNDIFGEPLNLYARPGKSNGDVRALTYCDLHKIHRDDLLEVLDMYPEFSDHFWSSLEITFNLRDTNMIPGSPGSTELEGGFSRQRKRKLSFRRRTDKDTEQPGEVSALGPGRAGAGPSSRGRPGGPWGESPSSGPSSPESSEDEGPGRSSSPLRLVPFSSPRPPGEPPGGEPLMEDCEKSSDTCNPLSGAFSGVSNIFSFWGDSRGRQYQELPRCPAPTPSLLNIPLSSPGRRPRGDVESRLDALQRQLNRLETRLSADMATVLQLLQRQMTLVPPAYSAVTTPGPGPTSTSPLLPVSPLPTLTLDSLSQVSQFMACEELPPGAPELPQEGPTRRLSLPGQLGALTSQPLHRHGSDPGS

[5] = molecular target: T2, Voltage-gated inwardly rectifying potassium channel KCNH2; test: Inhibition of hERG by manual patch clamp assay; assay type: toxicity

`N[C@@H](CC(=O)O)Cn1nnc(-c2ccc(Oc3ncc(Cl)cc3F)cc2)n1` gave a concentration at 14 h (in vivo) of 184 nM.

In the case of `c1ccc(Oc2ccc(-c3c[nH]cn3)cc2)cc1`, the IC50 [1] is reported as 0.088 µM, the concentration at 14 h (in vivo) is reported as 218 nM and the logD (physchem [2]) is reported as 3.7. It also gave a Papp A→B (in vitro) of 56 ×10⁻⁶ cm/s, a solubility (physchem [3]) of 121 µM (≈ 28.6 µg/mL) and an inhibition in vivo at 10 mg/kg (Mus musculus) of 93%.

For `c1cc(-c2ccc(Oc3ccc(CN4CCCC4)nc3)nc2)[nH]n1`, the IC50 [4] was over 30 µM and the IC50 [5] was 19 µM.

Work on `c1cc(-c2ccc(Oc3ccc(CN4CCCCC4)nc3)nc2)[nH]n1` yielded an IC50 [4] of over 30 µM and an IC50 [5] of 27 µM.

In the case of `CN(C)Cc1ccc(Oc2ccc(-c3ccn[nH]3)cn2)cn1`, the IC50 [4] is reported as over 30 µM.
